Holding throughout (assay type): in vivo, rat
For assay [1], the system named is Male Wistar rats. The assay can be described thus: Ketamine-induced psychomotor activity (locomotor activity, total distance traveled). As to conditions: mGluR2/3 agonist 1 mpk; for whether ketamine increased psychomotor activity (locomotor response): FIG. 2, first 60 minutes after ketamine or saline, 5-HT2a antagonist 0.2 mpk. From the text:
(§1) Compounds with antipsychotic efficacy are known to block Ketamine-induced psychomotor activity in rats (Bardi et al., Behavioural Pharmacology (2007), 18(2), 103-118). Male Wistar rats were received on site and housed for 7 days with food and water ad libitum. On the day of testing, animals were given vehicle (water for mGluR2/3 agonist, 1% Tween for 5-HT2A antagonist), the 5-HT2A antagonist volinanserin (0.2 mpk), the mGluR2/3 agonist (−)-2-oxa-4-aminobicyclo[3.1.0]hexane-4,6-dicarboxylate (1 mpk), or both the 5-HT2A antagonist (0.2 mpk) and the mGluR2/3 agonist (1 mpk) and placed in locomotor activity monitors. Thirty minutes later animals received a subcutaneous injection of saline or 37.5 mg/kg Ketamine and placed back into the'locomotor activity monitors for 90 minutes. Total distance traveled was used to assess locomotor behavior. The distance traveled is summed over the ninety minutes after ketamine or saline treatment.
Similarly, locomotor response was determined over the first 60 minutes after receiving ketamine or saline as a function of treatment with vehicle, the 5-HT2a antagonist (0.2 mpk), the mGluR2/3 agonist (1 mpk), or the 5-HT2a antagonist (0.2 mpk)+the mGluR2/3 agonist (1 mpk).

For assay [2], the system named is Male Wistar rats. The assay can be described thus: Amphetamine-induced psychomotor activity (locomotor activity, total distance traveled). As to conditions: FIG. 3; summed over 90 minutes after 1.5 mg/kg s.c. amphetamine; 5-HT2a antagonist 0.2 mpk, mGluR2/3 agonist 1 mpk.
Source text: as §1, with “amphetamine-induced” for “Ketamine-induced”, “1.5” for “37.5”, “amphetamine” for “Ketamine”, “the locomotor” for “the'locomotor”, “amphetamine” for “ketamine”

For assay [3], the system named is Male Wistar rats. In words: MK-801-induced psychomotor activity (locomotor activity, total distance traveled). As to conditions: 5-HT2A antagonist 0.2 mpk, mGluR2/3 agonist 1 mpk; for reduction of the response to MK-801: 90 minutes after 0.2 mg/kg s.c. MK-801; for psychomotor activity, total distance traveled after MK-801: summed over 90 minutes after 0.2 mg/kg s.c. MK-801, control≃200 cm, MK-801 alone≃2000 cm.
Method: Male Wistar rats were received on site and housed for 7 days with food and water ad libitum. […] Thirty minutes later animals received a subcutaneous injection of saline or 0.2 mg/kg MK-801 and were placed back into the locomotor activity monitors for 90 minutes. Total distance traveled was used to assess locomotor behavior. The distance traveled is summed over the ninety minutes after MK-801 or saline treatment.

Take `NC1(C(=O)O)COC2C(C(=O)O)C21` (single isomer, unassigned; (-)) [mGluR2/3 agonist, (−)-2-oxa-4-aminobicyclo[3.1.0]hexane-4,6-dicarboxylate]: the “response to ketamine (psychomotor activity, distance traveled) relative to the 0-0-Ketamine group” value in the assay with Male Wistar rats [1] (FIG. 1, summed over 90 minutes after 37.5 mg/kg s.c. ketamine, 5-HT2A antagonist 0.2 mpk, given 30 min before) is recorded as “decreased the response to ketamine”. Moreover, in the assay on Male Wistar rats [1], the “whether ketamine increased psychomotor activity (locomotor response)” value is “ketamine increased psychomotor activity”. Besides, the “influence on amphetamine-induced psychomotor activity” value in the assay with Male Wistar rats [2] is “did not influence amphetamine-induced psychomotor activity”. For the same compound, in the assay on Male Wistar rats [3], the “reduction of the response to MK-801” value is listed as “Neither the mGluR2/3 agonist nor the 5-HT2A antagonist given alone reduced the response to MK-801” and the “psychomotor activity, total distance traveled after MK-801” value was around 1900 cm.

As for `COc1cccc([C@H](O)C2CCN(CCc3ccc(F)cc3)CC2)c1OC` [5-HT2A antagonist, (+)-alpha-(2,3-dimethoxyphenyl)-1-[2-(4 fluorophenyl)ethyl]-4-piperidine methanol], the “whether ketamine increased psychomotor activity (locomotor response)” value with Male Wistar rats [1] was “ketamine increased psychomotor activity”. Further, the “influence on amphetamine-induced psychomotor activity” value in the assay on Male Wistar rats [2] is reported as “did not influence amphetamine-induced psychomotor activity”. Moreover, in the assay with Male Wistar rats [3], the “reduction of the response to MK-801” value is on record as “Neither the mGluR2/3 agonist nor the 5-HT2A antagonist given alone reduced the response to MK-801” and the “psychomotor activity, total distance traveled after MK-801” value is listed as around 2500 cm.

Source of the values: patent publication US20110190345A1, “Treatment of Psychosis with a 5HT2A Antagonist and a Metabotropic Glutamate Receptor Agonist or Potentiator” (priority 2007, published 2011).
